Where a name gives a salt, the structure may show the parent alone.
Columns and labels:
HeLa cells = test: Cell viability, HeLa cells; format: cell-based; details: Homo sapiens
Description: (§1) HeLa- or MDAMB468-Cells or MATU ADR, H460, DU145, CACO-2 or B16F10 cells were maintained in RPMI 1640 or McCoy's 5A cell culture medium+glutamine (PAN Biotech GmbH, Aidenbach, Germany; order no. P04-22100; P04-05500) supplemented with 10% fetal calf serum “Gold” (PAA Laboratories GmbH, Pasching, Austria; order no. A15-151) and grown at 37° C., 5% CO2. For the cell viability assay, cells were seeded with a density of 400 (Hela cells, DSMZ Braunschweig order no. ACC57) or 800 (MDAMB468 cells, ATCC order no. HTB-132) per well in 25 μL in 384-well plates (Greiner Bio-One, Frickenhausen, Germany; order no. 781080). After overnight incubation at 37° C./5% CO2, 25 nL or 75 nL compound were added to each sample well by using BIOMEK FXP Laboratory Automation Workstation (Beckman Coulter, USA). Wells with cells and 0.1% or 0.3% DMSO in culture medium were used as positive controls, wells with cells and 10 μM staurosporine in culture medium were used as negative controls. The cells were incubated with the compounds for 72 h at 37° C./5% CO2. For measurement of cell viability […] Cell Titer Glo reagent (Promega, Madison, USA; order no. G7573), 1:2 diluted with cell culture medium, was added to each well. The 384well-plates were placed for 2 min on an orbital microplate shaker and incubated for further 10 min at room temperature to stabilize the luminescence signal. Luminescence was measured by Envision Plate Reader (Perkin Elmer, USA). EC50 values were calculated with the software Excel Fit (IDBS, Guildford, UK) from 3-fold dilution series comprising at least 8 concentrations in duplicates.
(§2) Cultivated tumour cells (NCl-H460, human non-small cell lung carcinoma cells, ATCC HTB-177; DU 145, hormone-independent human prostate carcinoma cells, ATCC HTB-81; HeLa-MaTu, human cervical carcinoma cells, EPO-GmbH, Berlin; HeLa-MaTu-ADR, multidrug-resistant human cervical carcinoma cells, EPO-GmbH, Berlin; HeLa human cervical tumour cells, ATCC CCL-2; Caco-2 human colorectal carcinoma, ATCC HTB-37; B16F10 mouse melanoma cells, ATCC CRL-6475) were plated at a density of 5,000 cells/well (DU145, HeLa-MaTu-ADR), 3,000 cells/well (NCl-H460, HeLa-MaTu, HeLa), 1,500 cells/well (Caco-2), or 1,000 cells/well (B16F10) in a 96-well multititer plate in 200 μL of their respective growth medium supplemented with 10% fetal calf serum. After 24 hours, the cells of one plate (zero-point plate) were stained with crystal violet (see below), while the medium of the other plates was replaced by fresh culture medium (200 μl), to which the test substances were added in various concentrations (0 μM as well as in the range of 0.001 to 10 μM; the final concentration of the solvent dimethyl sulfoxide was 0.5%). The cells were incubated in the presence of test substances for 4 days. Cell proliferation was determined by staining the cells with crystal violet: The cells were fixed by adding 20 μl/measuring point of an 11% glutaric aldehyde solution at room temperature for 15 minutes. After three washing cycles of the fixed cells with water, the plates were dried at room temperature. The cells were stained by adding 100 μl/measuring point of a 0.1% crystal violet solution (pH 3.0). After three washing cycles of the stained cells with water, the plates were dried at room temperature. The dye was dissolved by adding 100 μl/measuring point of a 10% acetic acid solution. The extinction was determined by photometry at a wavelength of 595 nm. The change of cell number, in percent, was calculated by normalization of the measured values to the extinction values of the zero-point plate (equivalent to 0%) and the extinction of the untreated (0 μm) cells (equivalent to 100%). The IC50 values were determined by means of a 4 parameter fit using the company's own software.

MDAMB468 cells = test: Cell viability assay, MDAMB468 cells; format: cell-based; details: Homo sapiens, MDA-MB-468, 72 h, Cell Titer Glo
Description: as §1

MaTu/ADR cells = test: Cell viability, MaTu/ADR cells; format: cell-based; details: Homo sapiens
Description: HeLa- or MDAMB468-Cells or MATU ADR, H460, DU145, CACO-2 or B16F10 cells were maintained in RPMI 1640 or McCoy's 5A cell culture medium+glutamine (PAN Biotech GmbH, Aidenbach, Germany; order no. P04-22100; P04-05500) supplemented with 10% fetal calf serum “Gold” (PAA Laboratories GmbH, Pasching, Austria; order no. A15-151) and grown at 37° C., 5% CO2. For the cell viability assay, cells were seeded with a density of 400 (Hela cells, DSMZ Braunschweig order no. ACC57) or 800 (MDAMB468 cells, ATCC order no. HTB-132) per well in 25 μL in 384-well plates (Greiner Bio-One, Frickenhausen, Germany; order no. 781080). After overnight incubation at 37° C./5% CO2, 25 nL or 75 nL compound were added to each sample well by using BIOMEK FXP Laboratory Automation Workstation (Beckman Coulter, USA). Wells with cells and 0.1% or 0.3% DMSO in culture medium were used as positive controls, wells with cells and 10 μM staurosporine in culture medium were used as negative controls. The cells were incubated with the compounds for 72 h at 37° C./5% CO2. For measurement of cell viability […] Cell Titer Glo reagent (Promega, Madison, USA; order no. G7573), 1:2 diluted with cell culture medium, was added to each well. The 384well-plates were placed for 2 min on an orbital microplate shaker and incubated for further 10 min at room temperature to stabilize the luminescence signal. Luminescence was measured by Envision Plate Reader (Perkin Elmer, USA). […]
Cultivated tumour cells (NCl-H460, human non-small cell lung carcinoma cells, ATCC HTB-177; DU 145, hormone-independent human prostate carcinoma cells, ATCC HTB-81; HeLa-MaTu, human cervical carcinoma cells, EPO-GmbH, Berlin; HeLa-MaTu-ADR, multidrug-resistant human cervical carcinoma cells, EPO-GmbH, Berlin; HeLa human cervical tumour cells, ATCC CCL-2; Caco-2 human colorectal carcinoma, ATCC HTB-37; B16F10 mouse melanoma cells, ATCC CRL-6475) were plated at a density of 5,000 cells/well (DU145, HeLa-MaTu-ADR), 3,000 cells/well (NCl-H460, HeLa-MaTu, HeLa), 1,500 cells/well (Caco-2), or 1,000 cells/well (B16F10) in a 96-well multititer plate in 200 μL of their respective growth medium supplemented with 10% fetal calf serum. […] Cell proliferation was determined by staining the cells with crystal violet: The cells were fixed by adding 20 μl/measuring point of an 11% glutaric aldehyde solution at room temperature for 15 minutes. […] The extinction was determined by photometry at a wavelength of 595 nm. The change of cell number, in percent, was calculated by normalization of the measured values to the extinction values of the zero-point plate (equivalent to 0%) and the extinction of the untreated (0 μm) cells (equivalent to 100%). The IC50 values were determined by means of a 4 parameter fit using the company's own software.

CACO-2 cells = test: Cell viability, CACO-2 cells; format: cell-based, human; details: Homo sapiens, Caco-2
Description: as §1
as §2, with “The cells were stained by adding 100 μl/measuring point of a 0.1% crystal violet solution (pH 3.0). After three washing cycles of the stained cells with water, the plates were dried at room temperature. The dye was dissolved by adding 100 μl/measuring point of a 10% acetic acid solution.” left out

CDK8/Cyclin C = molecular target: T1, CDK8/Cyclin C (Homo sapiens, UniProt P49336); test: LanthaScreen Eu Kinase Binding Assay, CDK8; details: tracer 236, read-out: Affinity (Kd) CDK8
T1 construct: purchased Invitrogen
Description: This protocol describes how the LanthaScreen Eu Kinase Binding Assay was performed to determine dissociation constants (Kd) of compounds of general formula (I) and CDK/Cyclin complexes. The principle behind this assay is based upon the binding and displacement of an Alexa Fluor 647-labeled tracer, which binds to the active site of kinases. Binding of the tracer to the kinase is detected using a Eu-labeled antibody. Simultaneous binding of both the tracer and antibody to the kinase gives rise to a FRET-signal. Binding of an inhibitor to the kinase competes for binding with the tracer, resulting in a loss of FRET.
The compounds of general formula (I) summarized in Table 1 were diluted from a 10 mM DMSO stock solution 1:10 in a total volume of 15 μL DMSO. This compound predilution was then serial diluted 1:3 over 8 steps in DMSO and briefly spun down. Each compound solution was now diluted 1:33.33 in kinase buffer (HEPES: 20 mM, pH: 8.0; MgCl2: 10 mM; DTT: 1 mM; Brij-35: 0.01%), mixed thoroughly and spun down. For every sample, 5 μL of the diluted compound were mixed with 5 μL tracer working solution (e.g. 60 nM tracer 236 in kinase buffer for CDK2/Cyclin A) and 5 μL CDK/Cyclin/Anti-GST-AB-working solution (e.g. 15 nM CDK2/Cyclin A, 1:250 dilution of Anti-GST-AB in kinase buffer) in a well of a small volume 384 well plate (Corning Incorporated, Corning, N.Y., USA; order no. 3673). […] For positive controls, in each well 5 μL of DMSO working solution (3% DMSO diluted in kinase buffer) was mixed with 5 μL CDK/Cyclin/Anti-GST-AB-working solution: (e.g. 15 nM CDK2/Cyclin A, 1:250 dilution of Anti-GST-AB in kinase buffer) and 5 μL Tracer working solution (e.g. 60 nM Tracer 236 in kinase buffer for CDK2/Cyclin A). Positive and negative controls were calculated from at least 8 different sample wells. The 384 well plates were mixed in a Teleshaker plate mixer (Beckman Coulter, Brea, Calif., USA) at 2000 rpm for 40 sec, and incubated for 1 h at room temperature before reading. The FRET signal was measured at 340 nm excitation, 665 nm and 615 nm emission (for the kinase tracer and LanthaScreen Eu-AB, respectively) with an Envision spectrophotometer (Perkin Elmer, Waltham, Mass., USA) with 50 μs delay and 300 μs integration time. Kd values were determined from the sigmoidal dose response curves with the software Quattro Workflow (Quattro GmbH, Munich, Germany).

T1 sequence (P49336 whole entry): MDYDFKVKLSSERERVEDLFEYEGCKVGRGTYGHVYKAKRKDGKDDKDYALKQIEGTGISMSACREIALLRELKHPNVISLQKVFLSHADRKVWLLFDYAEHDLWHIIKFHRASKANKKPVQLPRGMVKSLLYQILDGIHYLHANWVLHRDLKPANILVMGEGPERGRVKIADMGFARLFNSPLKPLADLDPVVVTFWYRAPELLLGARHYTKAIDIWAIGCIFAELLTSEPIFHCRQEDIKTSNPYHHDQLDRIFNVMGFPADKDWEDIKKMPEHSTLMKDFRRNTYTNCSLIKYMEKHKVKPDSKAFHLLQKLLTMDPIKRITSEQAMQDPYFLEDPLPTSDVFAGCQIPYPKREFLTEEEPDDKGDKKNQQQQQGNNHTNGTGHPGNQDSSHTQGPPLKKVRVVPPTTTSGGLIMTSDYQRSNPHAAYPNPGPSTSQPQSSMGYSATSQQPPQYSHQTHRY
T1 sequence (P24863 whole entry partner): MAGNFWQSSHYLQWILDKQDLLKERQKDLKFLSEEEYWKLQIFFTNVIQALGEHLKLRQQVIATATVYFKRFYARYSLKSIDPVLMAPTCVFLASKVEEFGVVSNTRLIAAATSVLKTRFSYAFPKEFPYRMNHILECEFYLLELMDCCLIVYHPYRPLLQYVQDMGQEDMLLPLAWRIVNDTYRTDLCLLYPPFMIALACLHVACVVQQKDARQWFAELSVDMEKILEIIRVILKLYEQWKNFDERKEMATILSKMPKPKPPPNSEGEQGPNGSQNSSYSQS

Row | SMILES | IC50 (HeLa cells) | IC50 (MDAMB468 cells) | IC50 (MaTu/ADR cells) | IC50 (CACO-2 cells) | Kd (CDK8/Cyclin C)
1 | CC(C)Oc1cc(F)ccc1-c1ncnc(Nc2cccc(CS(N)(=O)=O)c2)n1 [Compound U2, 1-[3-({4-[4-fluoro-2-(propan-2-yloxy)phenyl]-1,3,5-triazin-2-yl}amino)phenyl]methanesulfonamide] | 2700 nM |  |  |  | 
2 | COc1cc(F)ccc1-c1ncnc(Nc2cccc(CS(N)(=O)=O)c2)n1 [Compound B2, 3-[(4-(4-Fluoro-2-methoxyphenyl)-1,3,5-triazin-2-yl)amino]benzenemethanesulfonamide] | 1000 nM | 420 nM | 1000 nM | 1600 nM | 
3 | NS(=O)(=O)Cc1cccc(Nc2ncnc(-c3ccccc3Oc3ccccc3)n2)c1 [Compound B14, 1-(3-{[4-(2-phenoxyphenyl)-1,3,5-triazin-2-yl]amino}phenyl)methanesulfonamide] |  |  |  |  | 5700 nM
4 | NS(=O)(=O)Cc1cccc(Nc2ncnc(-c3ccccc3OCc3ccccc3)n2)c1 [B13′, 3-[(4-(2-Benzyloxyphenyl)-1,3,5-triazin-2-yl)amino]benzenemethanesulfonamide trifluoroacetic acid salt] | 310 nM | 160 nM | 290 nM | 370 nM | 4860 nM
5 | COc1cc(F)ccc1-c1ncnc(Nc2ccc(S(C)(=O)=O)nc2)n1 [Compound U8, 4-(4-fluoro-2-methoxyphenyl)-N-[6-(methylsulfonyl)pyridin-3-yl]-1,3,5-triazin-2-amine] | 4200 nM |  |  |  | 
6 | CNS(=O)(=O)Cc1cccc(Nc2cc(-c3ccccc3OC)ncn2)c1 [Ref2, C-{3-[6-(2-Methoxy-phenyl)-pyrimidin-4-ylamino]-phenyl}-N-methyl methanesulfonamide, reference compound] | 4600 nM |  |  |  | 
7 | CCCS(=O)(=O)Nc1cccc(Nc2ncnc(-c3ccccc3OC)n2)c1 [Compound L1, N-[3-((4-(2-Methoxyphenyl)-1,3,5-triazin-2-yl)amino)phenyl]-propanesulfonamide] |  | 4500 nM |  |  | 
8 | N#Cc1cc(F)ccc1-c1ncnc(Nc2cccc(CS(N)(=O)=O)c2)n1 [Compound U3, 1-(3-{[4-(2-cyano-4-fluorophenyl)-1,3,5-triazin-2-yl]amino}phenyl)methanesulfonamide] | 10000 nM |  |  |  | 
9 | COc1ccccc1-c1ncnc(Nc2cccc(CS(N)(=O)=O)c2)n1 [B1′, 3-[(4-(2-Methoxyphenyl)-1,3,5-triazin-2-yl)amino]benzenemethanesulfonamide trifluoroacetic acid salt] | 3200 nM | 2990 nM | 3200 nM | 4300 nM | 
10 | COc1cc(F)c(F)cc1-c1ncnc(Nc2cccc(CS(N)(=O)=O)c2)n1 [Compound U7, 1-(3-{[4-(4,5-difluoro-2-methoxyphenyl)-1,3,5-triazin-2-yl]amino}phenyl)methanesulfonamide] | 1200 nM |  |  |  | 

From patent US20130079345A1, “[…] ACTIVE DISUBSTITUTED TRIAZINE DERIVATIVES” (BAYER INTELLECTUAL PROPERTY GMBH, priority 2010, published 2013)
